US8449898B2 (priority 2007, dated 2013)
Where two headings read alike, the source gives them in different places.

Experiments:
[1] = tested on: Phytophthora infestans (the causal agent of tomato late blight); experiment: whole plant or invertebrate; format: in vivo; details: for pest or weed control at 0.04 ppm: read-out: TLB Obsd (observed effect, tomato late blight), component (b) alone, 0.04 ppm; for TLB Obsd: Table D; for TLB Obsd (observed effect, tomato late blight): component (b) alone; for TLB Obsd (disease control rating): Table B
[2] = tested on: Pseudoperonospora cubensis (the causal agent of cucumber downy mildew); experiment: Test B: cucumber downy mildew, preventive spray on cucumber seedlings; format: in vivo; details: for CDM Obsd (disease control rating): Table B
[3] = Phytophthora infestans, read-out: TLB Obsd (observed effect, tomato late blight), component (b) alone, 2 ppm
[4] = Phytophthora infestans, read-out: TLB Obsd (observed effect, tomato late blight), component (b) alone, 10 ppm
[5] = Phytophthora infestans, read-out: TLB Obsd (observed effect, tomato late blight), component (b) alone, 40 ppm
[6] = Pseudoperonospora cubensis, component (b) alone, 2 ppm, read-out: CDM Obsd (observed effect, cucumber downy mildew)
[7] = Pseudoperonospora cubensis, component (b) alone, 10 ppm, read-out: CDM Obsd (observed effect, cucumber downy mildew)
[8] = Pseudoperonospora cubensis, component (b) alone, 40 ppm, read-out: CDM Obsd (observed effect, cucumber downy mildew)
[9] = Phytophthora infestans, read-out: TLB Obsd (observed effect, tomato late blight), component (b) alone, 200 ppm
[10] = Pseudoperonospora cubensis, component (b) alone, read-out: CDM Obsd (observed effect, cucumber downy mildew)
[11] = Pseudoperonospora cubensis, component (b) alone, 200 ppm, read-out: CDM Obsd (observed effect, cucumber downy mildew)
[12] = component (b) alone 2 ppm (Compound 1 0 ppm)
[13] = component (b) alone 10 ppm (Compound 1 0 ppm)
[14] = component (b) alone 40 ppm (Compound 1 0 ppm)

## N#Cc1c(Cl)c(Cl)c(Cl)c(C#N)c1Cl [chlorothalonil]
[1]; Phytophthora infestans, read-out: TLB Obsd (observed effect, tomato late blight), component (b) alone, 0.08 ppm
  pest or weed control at 0.08 ppm: 14%
[1]; Phytophthora infestans, read-out: TLB Obsd (observed effect, tomato late blight), component (b) alone, 0.4 ppm
  pest or weed control at 0.4 ppm: 14%
[1]; [3]
  pest or weed control at 2 ppm: 21%
[1]; [4]
  pest or weed control at 10 ppm: 100%
[1]; [5]
  pest or weed control at 40 ppm: 100%
[1]; Phytophthora infestans, read-out: TLB Obsd, Table E, component (b) alone at 0.016 ppm
  pest or weed control at 0.016 ppm: 31%
[1]; Phytophthora infestans, read-out: TLB Obsd, Table E, component (b) alone at 0.08 ppm
  pest or weed control at 0.08 ppm: 0%
[1]; Phytophthora infestans, read-out: TLB Obsd, Table E, component (b) alone at 0.4 ppm
  pest or weed control at 0.4 ppm: 73%
[1]; Phytophthora infestans, read-out: TLB Obsd, Table E, component (b) alone at 2 ppm
  pest or weed control at 2 ppm: 100%
[1]; Phytophthora infestans, read-out: TLB Obsd, Table E, component (b) alone at 10 ppm
  pest or weed control at 10 ppm: 100%
[2]; Pseudoperonospora cubensis, Table F, component (b) alone at 0.016 ppm, read-out: CDM Obsd
  pest or weed control at 0.016 ppm: 47%
[2]; Pseudoperonospora cubensis, Table F, component (b) alone at 0.08 ppm, read-out: CDM Obsd
  pest or weed control at 0.08 ppm: 33%
[2]; Pseudoperonospora cubensis, Table F, component (b) alone at 0.4 ppm, read-out: CDM Obsd
  pest or weed control at 0.4 ppm: 47%
[2]; Pseudoperonospora cubensis, Table F, component (b) alone at 2 ppm, read-out: CDM Obsd
  pest or weed control at 2 ppm: 99%
[2]; Pseudoperonospora cubensis, Table F, component (b) alone at 10 ppm, read-out: CDM Obsd
  pest or weed control at 10 ppm: 100%
[2]; Pseudoperonospora cubensis, component (b) alone, 0.08 ppm, read-out: CDM Obsd (observed effect, cucumber downy mildew)
  pest or weed control at 0.08 ppm: 0%
[2]; Pseudoperonospora cubensis, component (b) alone, 0.4 ppm, read-out: CDM Obsd (observed effect, cucumber downy mildew)
  pest or weed control at 0.4 ppm: 0%
[2]; [6]
  pest or weed control at 2 ppm: 0%
[2]; [7]
  pest or weed control at 10 ppm: 70%
[2]; [8]
  pest or weed control at 40 ppm: 71%

## O=[N+]([O-])c1cc(C(F)(F)F)c(Cl)c([N+](=O)[O-])c1Nc1ncc(C(F)(F)F)cc1Cl [fluazinam]
[1]; Phytophthora infestans, read-out: TLB Obsd (disease control rating), Table C, component (b) alone 0.4 ppm
  pest or weed control at 0.4 ppm: 17%
[1]; Phytophthora infestans, read-out: TLB Obsd (disease control rating), Table C, component (b) alone 2 ppm
  pest or weed control at 2 ppm: 40%
[1]; Phytophthora infestans, read-out: TLB Obsd (disease control rating), Table C, component (b) alone 10 ppm
  pest or weed control at 10 ppm: 80%
[1]; Phytophthora infestans, read-out: TLB Obsd (disease control rating), Table C, component (b) alone 40 ppm
  pest or weed control at 40 ppm: 98%
[1]; Phytophthora infestans, read-out: TLB Obsd (disease control rating), Table C, component (b) alone 200 ppm
  pest or weed control at 200 ppm: 100%
[1]; Phytophthora infestans
  pest or weed control at 0.04 ppm: 23%
[1]; [3]
  pest or weed control at 2 ppm: 71%
[1]; [4]
  pest or weed control at 10 ppm: 99%
[1]; [5]
  pest or weed control at 40 ppm: 99%
[1]; [9]
  pest or weed control at 200 ppm: 100%
[2]; Pseudoperonospora cubensis, Table C, component (b) alone 0.4 ppm, read-out: CDM Obsd (disease control rating)
  pest or weed control at 0.4 ppm: 57%
[2]; Pseudoperonospora cubensis, Table C, component (b) alone 2 ppm, read-out: CDM Obsd (disease control rating)
  pest or weed control at 2 ppm: 60%
[2]; Pseudoperonospora cubensis, Table C, component (b) alone 10 ppm, read-out: CDM Obsd (disease control rating)
  pest or weed control at 10 ppm: 91%
[2]; Pseudoperonospora cubensis, Table C, component (b) alone 40 ppm, read-out: CDM Obsd (disease control rating)
  pest or weed control at 40 ppm: 100%
[2]; Pseudoperonospora cubensis, Table C, component (b) alone 200 ppm, read-out: CDM Obsd (disease control rating)
  pest or weed control at 200 ppm: 100%
[2]; Pseudoperonospora cubensis, component (b) alone 0.4 ppm (Compound 1 0 ppm), read-out: CDM Obsd
  pest or weed control at 0.4 µg/mL: 47%
[2]; Pseudoperonospora cubensis, component (b) alone 2 ppm (Compound 1 0 ppm), read-out: CDM Obsd
  pest or weed control at 2 µg/mL: 57%
[2]; Pseudoperonospora cubensis, component (b) alone 10 ppm (Compound 1 0 ppm), read-out: CDM Obsd
  pest or weed control at 10 µg/mL: 92%
[2]; Pseudoperonospora cubensis, component (b) alone 40 ppm (Compound 1 0 ppm), read-out: CDM Obsd
  pest or weed control at 40 µg/mL: 100%
[2]; Pseudoperonospora cubensis, component (b) alone 200 ppm (Compound 1 0 ppm), read-out: CDM Obsd
  pest or weed control at 200 µg/mL: 100%
[2]; [10]
  pest or weed control at 0.04 ppm: 56%
[2]; [6]
  pest or weed control at 2 ppm: 89%
[2]; [7]
  pest or weed control at 10 ppm: 98%
[2]; [8]
  pest or weed control at 40 ppm: 100%
[2]; [11]
  pest or weed control at 200 ppm: 100%

## [Cu+2].[OH-].[OH-] [copper hydroxide]
[1]; component (b) alone at 2 ppm
  TLB Obsd: 32%
[1]; component (b) alone at 10 ppm
  TLB Obsd: 48%
[1]; component (b) alone at 40 ppm
  TLB Obsd: 40%
[1]; component (b) alone at 200 ppm
  TLB Obsd: 70%
[1]; component (b) alone at 500 ppm
  TLB Obsd: 91%
[1]; 2 ppm
  TLB Obsd (observed effect, tomato late blight): 22
[1]; 10 ppm
  TLB Obsd (observed effect, tomato late blight): 36
[1]; 40 ppm
  TLB Obsd (observed effect, tomato late blight): 50
[1]; 200 ppm
  TLB Obsd (observed effect, tomato late blight): 71
[1]; 500 ppm
  TLB Obsd (observed effect, tomato late blight): 77
[2]; Table D, component (b) alone at 2 ppm
  CDM Obsd: 53%
[2]; Table D, component (b) alone at 10 ppm
  CDM Obsd: 63%
[2]; Table D, component (b) alone at 40 ppm
  CDM Obsd: 85%
[2]; Table D, component (b) alone at 200 ppm
  CDM Obsd: 85%
[2]; Table D, component (b) alone at 500 ppm
  CDM Obsd: 88%
[2]; [12]
  CDM Obsd: 47%
[2]; [13]
  CDM Obsd: 47%
[2]; [14]
  CDM Obsd: 47%
[2]; component (b) alone 200 ppm (Compound 1 0 ppm)
  CDM Obsd: 85%
[2]; component (b) alone 500 ppm (Compound 1 0 ppm)
  CDM Obsd: 93%
[2]; component (b) alone, 2 ppm
  CDM Obsd (observed effect, cucumber downy mildew): 0
[2]; component (b) alone, 10 ppm
  CDM Obsd (observed effect, cucumber downy mildew): 0
[2]; component (b) alone, 40 ppm
  CDM Obsd (observed effect, cucumber downy mildew): 0
[2]; component (b) alone, 200 ppm
  CDM Obsd (observed effect, cucumber downy mildew): 29
[2]; component (b) alone, 500 ppm
  CDM Obsd (observed effect, cucumber downy mildew): 37

## CO/C=C(/C(=O)OC)c1ccccc1Oc1cc(Oc2ccccc2C#N)ncn1 [azoxystrobin]
[1]; component (b) alone 0.08 ppm
  TLB Obsd (disease control rating): 0%
[1]; component (b) alone 0.4 ppm
  TLB Obsd (disease control rating): 16%
[1]; component (b) alone 2 ppm
  TLB Obsd (disease control rating): 26%
[1]; component (b) alone 10 ppm
  TLB Obsd (disease control rating): 58%
[1]; component (b) alone 40 ppm
  TLB Obsd (disease control rating): 99%
[1]; 0.4 ppm
  TLB Obsd (observed effect, tomato late blight): 29
[1]; 2 ppm
  TLB Obsd (observed effect, tomato late blight): 56
[1]; 10 ppm
  TLB Obsd (observed effect, tomato late blight): 90
[1]; 40 ppm
  TLB Obsd (observed effect, tomato late blight): 100
[2]; component (b) alone 0.08 ppm
  CDM Obsd (disease control rating): 64%
[2]; component (b) alone 0.4 ppm
  CDM Obsd (disease control rating): 80%
[2]; component (b) alone 2 ppm
  CDM Obsd (disease control rating): 100%
[2]; component (b) alone 10 ppm
  CDM Obsd (disease control rating): 100%
[2]; component (b) alone 40 ppm
  CDM Obsd (disease control rating): 100%
[2]; component (b) alone 0.08 ppm (Compound 1 0 ppm)
  CDM Obsd: 26%
[2]; component (b) alone 0.4 ppm (Compound 1 0 ppm)
  CDM Obsd: 40%
[2]; [12]
  CDM Obsd: 100%
[2]; [13]
  CDM Obsd: 100%
[2]; [14]
  CDM Obsd: 100%
[2]; component (b) alone, 0.4 ppm
  CDM Obsd (observed effect, cucumber downy mildew): 0
[2]; component (b) alone, 2 ppm
  CDM Obsd (observed effect, cucumber downy mildew): 70
[2]; component (b) alone, 10 ppm
  CDM Obsd (observed effect, cucumber downy mildew): 100
[2]; component (b) alone, 40 ppm
  CDM Obsd (observed effect, cucumber downy mildew): 100

## CCNC(=O)NC(=O)/C(C#N)=N/OC [cymoxanil]
[1]; Phytophthora infestans, read-out: TLB Obsd (disease control rating), Table A, component (b) alone 0.4 ppm
  pest or weed control at 0.4 ppm: 9%
[1]; Phytophthora infestans, read-out: TLB Obsd (disease control rating), Table A, component (b) alone 2 ppm
  pest or weed control at 2 ppm: 76%
[1]; Phytophthora infestans, read-out: TLB Obsd (disease control rating), Table A, component (b) alone 10 ppm
  pest or weed control at 10 ppm: 100%
[1]; Phytophthora infestans, read-out: TLB Obsd (disease control rating), Table A, component (b) alone 40 ppm
  pest or weed control at 40 ppm: 100%
[1]; Phytophthora infestans, read-out: TLB Obsd (disease control rating), Table A, component (b) alone 200 ppm
  pest or weed control at 200 ppm: 100%
[1]; Phytophthora infestans
  pest or weed control at 0.04 ppm: 44%
[1]; [3]
  pest or weed control at 2 ppm: 46%
[1]; [4]
  pest or weed control at 10 ppm: 100%
[1]; [5]
  pest or weed control at 40 ppm: 100%
[1]; [9]
  pest or weed control at 200 ppm: 100%
[2]; Pseudoperonospora cubensis, Table A, component (b) alone 0.4 ppm, read-out: CDM Obsd (disease control rating)
  pest or weed control at 0.4 ppm: 47%
[2]; Pseudoperonospora cubensis, Table A, component (b) alone 2 ppm, read-out: CDM Obsd (disease control rating)
  pest or weed control at 2 ppm: 47%
[2]; Pseudoperonospora cubensis, Table A, component (b) alone 10 ppm, read-out: CDM Obsd (disease control rating)
  pest or weed control at 10 ppm: 47%
[2]; Pseudoperonospora cubensis, Table A, component (b) alone 40 ppm, read-out: CDM Obsd (disease control rating)
  pest or weed control at 40 ppm: 47%
[2]; Pseudoperonospora cubensis, Table A, component (b) alone 200 ppm, read-out: CDM Obsd (disease control rating)
  pest or weed control at 200 ppm: 47%
[2]; Pseudoperonospora cubensis, Table G, component (b) alone at 0.4 ppm, read-out: CDM Obsd
  pest or weed control at 0.4 ppm: 26%
[2]; Pseudoperonospora cubensis, Table G, component (b) alone at 2 ppm, read-out: CDM Obsd
  pest or weed control at 2 ppm: 26%
[2]; Pseudoperonospora cubensis, Table G, component (b) alone at 10 ppm, read-out: CDM Obsd
  pest or weed control at 10 ppm: 26%
[2]; Pseudoperonospora cubensis, Table G, component (b) alone at 40 ppm, read-out: CDM Obsd
  pest or weed control at 40 ppm: 26%
[2]; Pseudoperonospora cubensis, Table G, component (b) alone at 200 ppm, read-out: CDM Obsd
  pest or weed control at 200 ppm: 26%
[2]; [10]
  pest or weed control at 0.04 ppm: 15%
[2]; [6]
  pest or weed control at 2 ppm: 0%
[2]; [7]
  pest or weed control at 10 ppm: 0%
[2]; [8]
  pest or weed control at 40 ppm: 0%
[2]; [11]
  pest or weed control at 200 ppm: 21%
